A word on the EC50: it is the midpoint of the concentration-response curve.

The assay concerns HCV 1b genotype. Briefly: HCV Replicon assay (HCV 16-377-neo replicon cells). The format is cell-based. The settings on record: Hepatitis C virus; HCV 1b genotype replicon cells; read-out: EC50 ranges against HCV 1b. How it is done: An HCV Replion assay was utilized in the present disclosure, and was prepared, conducted and validated as described in commonly owned PCT/US2006/022197 and in O'Boyle et. al. Antimicrob Agents Chemother. 2005 Apr;49(4): 1346-53.
HCV 16-377-neo replicon cells were used to test the currently described compound series as well as cells resistant to compound A due to a Y2065H mutation in NS5A (described in application PCT/US2006/022197). The compounds tested were determined to have more than 10-fold less inhibitory activity on cells resistant to compound A than wild-type cells indicating a related mechanism of action between the two compound series. Thus, the compounds of the present disclosure can be effective to inhibit the function of the HCV NS5A protein and are understood to be as effective in combinations as previously described in application PCT/US2006/022197 and commonly owned WO/O4014852. Further, the compounds of the present disclosure can be effective against the HCV 1b genotype. It should also be understood that the compounds of the present disclosure can inhibit multiple genotypes of HCV. […] In one embodiment compounds of the present disclosure are active against the 1a, 1b, 2a, 2b, 3a, 4a, and 5a genotypes.
As to `COC(=O)N[C@@H](C)C(=O)N1CCC[C@H]1c1nc(-c2ccc(-c3ccc(-c4[nH]c([C@@H]5CCCN5C(=O)[C@H](C)NC(=O)OC)nc4CO)cc3)cc2)c[nH]1` [Example J14f.1, methyl ((1S)-2-((2S)-2-(4-(4'-(4-(hydroxymethyl)-2-((2S)-1-(N-(methoxycarbonyl)-L-alanyl)-2-pyrrolidinyl)-1H-imidazol-5-yl)-4-biphenylyl)-1H-imidazol-2-yl)-1-pyrrolidinyl)-1-methyl-2-oxoethyl)carbamate], the EC50 lay in the range of 1 to 99 nM. `COC(=O)N[C@@H](C)C(=O)N1[C@@H]2C[C@@H]2C[C@H]1c1ncc(-c2ccc(-c3ccc(-c4cnc([C@@H]5C[C@H]6C[C@H]6N5C(=O)[C@H](C)NC(=O)OC)[nH]4)cc3)cc2)[nH]1` [Example M132, methyl ((1S)-2-((1R,3S,5R)-3-(4-(4'-(2-((1R,3S,SR)-2-(N(methoxycarbonyl)-L-alanyl)-2-azabicyclo[3.1.0]hex-3-yl)-1H-imidazol-4-yl)-4-biphenyl)-1H-imidazol-2-yl)-2-azabicyclo[3.1.0]hex-2-yl)-1-methyl-2-oxoethyl)carbamate]: the EC50 fell in the range of 0.001 to 0.999 nM. Under `CC[C@H](NC(=O)OC)C(=O)N1[C@@H]2C[C@@H]2C[C@H]1c1nc(-c2ccc(-c3ccc(-c4c[nH]c([C@@H]5C[C@H]6C[C@H]6N5C(=O)[C@H](CC)NC(=O)OC)n4)cc3)cc2)c[nH]1` [Example M133, dimethyl (4,4'-biphenyldiylbis(1H-imidazole-4,2-diyl(1R,3S,5R)-2-azabicyclo[3.1.0]hexane-3,2-diyl((2S)-1-oxo-1,2-butanediyl)))biscarbamate] stands 0.001 to 0.999 nM. For `COC(=O)N[C@H](C(=O)N1[C@@H]2C[C@@H]2C[C@H]1c1nc(-c2ccc(-c3ccc(-c4c[nH]c([C@@H]5C[C@H]6C[C@H]6N5C(=O)[C@@H](NC(=O)OC)C5CC5)n4)cc3)cc2)c[nH]1)C1CC1` [Example M135, dimethyl (4,4'-biphenyldiylbis(1H-imidazole-4,2-diyl(1R,3S,5R)-2-azabicyclo[3.1.0]hexane-3,2-diyl((1S)-1-cyclopropyl-2-oxo-2,1-ethanediyl)))biscarbamate], the EC50 lay within 0.001 to 0.999 nM. The same measure for `COC(=O)N[C@@H](C(=O)N1[C@@H]2C[C@@H]2C[C@H]1c1nc(-c2ccc(-c3ccc(-c4c[nH]c([C@@H]5C[C@H]6C[C@H]6N5C(=O)[C@H](NC(=O)OC)C(C)C)n4)cc3)cc2)c[nH]1)C(C)C` [Example M136, methyl ((1R)-1-(((1R,3S,5R)-3-(4-(4'-(2-((1R,3S,5R)-2-((2R)-2-((methoxycarbonyl)amino)-3-methylbutanoyl)-2-azabicyclo[3.1.0]hex-3-yl)-1H-imidazol-4-yl)-4-biphenylyl)-1H-imidazol-2-yl)-2-azabicyclo[3.1.0]hex-2-yl)carbonyl)-2-methylpropyl)carbamate]: 1 to 99 nM.

Turning to `COC(=O)N[C@H](C(=O)N1[C@@H]2C[C@@H]2C[C@H]1c1ncc(-c2ccc(-c3ccc(-c4cnc([C@@H]5C[C@H]6C[C@H]6N5C(=O)CCCC[C@@H]5SC[C@@H]6NC(=O)N[C@@H]65)[nH]4)cc3)cc2)[nH]1)C(C)C` [Example M139], the EC50 was 0.001 to 0.999 nM. For `CC(=O)N[C@H](C(=O)N1[C@@H]2C[C@@H]2C[C@H]1c1ncc(-c2ccc(-c3ccc(-c4cnc([C@@H]5C[C@H]6C[C@H]6N5C(=O)[C@@H](NC(C)=O)C(C)C)[nH]4)cc3)cc2)[nH]1)C(C)C` [Example M140, N((1S)-1-(((1R,3S,SR)-3-(4-(4'-(2-((1R,3S,SR)-2-((2S)-2-acetamido-3-methylbutanoyl)-2-azabicyclo[3.1.0]hex-3-yl)-1H-imidazol-4-yl)-4-biphenylyl)-1H imidazol-2-yl)-2-azabicyclo[3.1.0]hex-2-yl)carbonyl)-2-methylpropyl)acetamide], the EC50 is 0.001 to 0.999 nM.

For the compound `CC(C)[C@H](N)C(=O)N1[C@@H]2C[C@@H]2C[C@H]1c1nc(-c2ccc(-c3ccc(-c4cnc([C@@H]5C[C@H]6C[C@H]6N5C(=O)[C@@H](N)C(C)C)[nH]4)cc3)cc2)c[nH]1` [Example M140a-i, (2S)-1-((1R,3S,5R)-3-(4-(4'-(2-((1R,3S,5R)-2-((2S)-2-amino-3-methylbutanoyl)-2-azabicyclo[3.1.0]hex-3-yl)-1H-imidazol-5-yl)-4-biphenylyl)-1H-imidazol-2-yl)-2-azabicyclo[3.1.0]hex-2-yl)-3-methyl-1-oxo-2-butanamine], the EC50 fell in the range of 1 to 99 nM.

On to `CC(C)[C@H](N)C(=O)N1[C@@H]2C[C@@H]2C[C@H]1c1ncc(-c2ccc(-c3ccc(-c4cnc([C@@H]5C[C@H]6C[C@H]6N5C(=O)[C@@H](N)C(C)C)[nH]4)cc3)cc2)[nH]1` [Example M140a-ii], for which the EC50 was 1 to 99 nM. As to `CC(C)[C@H](NC(=O)C1CC1)C(=O)N1[C@@H]2C[C@@H]2C[C@H]1c1ncc(-c2ccc(-c3ccc(-c4cnc([C@@H]5C[C@H]6C[C@H]6N5C(=O)[C@@H](NC(=O)C5CC5)C(C)C)[nH]4)cc3)cc2)[nH]1` [Example M141, N((1S)-1-(((1R,3S,SR)-3-(4-(4'-(2-((1R,3S,SR)-2-((2S)-2-((cyclopropylcarbonyl)amino)-3-methylbutanoyl)-2-azabicyclo[3.1.0]hex-3-yl)-1H imidazol-4-y/)-4-biphenyly/)-1H-imidazol-2-yl)-2-azabicyclo[3.1. 0]hex-2-yl)carbonyl)-2-methylpropyl)cyclopropanecarbamate], the half-maximal effective concentration (EC50) was 1 to 99 nM.

As to `CC(C)[C@@H](NC(=O)OC(C)(C)C)C(=O)N1[C@@H]2C[C@@H]2C[C@H]1c1nc(-c2ccc(-c3ccc(-c4c[nH]c([C@@H]5C[C@H]6C[C@H]6N5C(=O)[C@H](NC(=O)OC(C)(C)C)C(C)C)n4)cc3)cc2)c[nH]1` [Example M142, tert-butyl ((1R)-1-(((1R,3S,5R)-3-(4-(4'-(2-((1R,3S,5R)-2-((2R)-2-((tert-butoxycarbonyl)amino)-3-methylbutanoyl)-2-azabicyclo[3.1.0]hex-3-yl)-1H-imidazol-4-yl)-4-biphenylyl)-1H-imidazol-2-yl)-2-azabic yclo[3.1.0]hex-2-yl)carbonyl)-2-methylpropyl)carbamate], the EC50 is 1 to 99 nM. On to `CC(C)[C@H](Nc1ncccn1)C(=O)N1[C@@H]2C[C@@H]2C[C@H]1c1ncc(-c2ccc(-c3ccc(-c4cnc([C@@H]5C[C@H]6C[C@H]6N5C(=O)[C@@H](Nc5ncccn5)C(C)C)[nH]4)cc3)cc2)[nH]1` [Example M144, N,N'-(4,4'-biphenyldiylbis(1H-imidazole-4,2-diyl(1R,3S,5R)-2-azabicyclo[3.1.0]hexane-3,2-diyl((2S)-3-methyl-1-oxo-1, -butanediyl)))di(2-pyrimidinamine)], for which the EC50 is 0.001 to 0.999 nM. In the case of `COC(=O)N[C@H](C(=O)N1CC2(CC2)C[C@H]1c1nc(-c2ccc(-c3ccc(-c4c[nH]c([C@@H]5CC6(CC6)CN5C(=O)[C@@H](NC(=O)OC)C(C)C)n4)cc3)cc2)c[nH]1)C(C)C` [Example M145, methyl ((1S)-1-(((6S)-6-(4-(4'-(2-((6S)-5-((2S)-2-((methoxycarbonyl)amino)-3-methylbutanoyl)-5-azaspiro[2.4]hept-6-yl)-1H-imidazol-4-yl)-4-biphenylyl)-1H-imidazol-2-yl)-5-azaspiro[2.4]hept-5-yl)carbonyl)-2-methylpropyl)carbamate], the 50% effective concentration (EC50) was in the range of 0.001 to 0.999 nM. In the case of `COC(=O)NCC(=O)N1CC2(CC2)C[C@H]1c1nc(-c2ccc(-c3ccc(-c4c[nH]c([C@@H]5CC6(CC6)CN5C(=O)CNC(=O)OC)n4)cc3)cc2)c[nH]1` [Example M146, methyl (2-((6S)-6-(4-(4'-(2-((6S)-5-(((methoxycarbonyl)amino)acetyl)-5-azaspiro[2.4]hept-6-yl)-1H-imidazol-4-yl)-4-biphenylyl)-1H-imidazol-2-yl)-5-azaspiro[2.4]hept-5-yl)-2-oxoethyl)carbamate], the EC50 is 0.001 to 0.999 nM.

`COC(=O)N[C@@H](C)C(=O)N1CC2(CC2)C[C@H]1c1nc(-c2ccc(-c3ccc(-c4c[nH]c([C@@H]5CC6(CC6)CN5C(=O)[C@H](C)NC(=O)OC)n4)cc3)cc2)c[nH]1` [Example M147, methyl ((1S)-2-((6S)-6-(4-(4'-(2-((6S)-5-(N-(methoxycarbonyl)-L-alanyl)-5-azaspiro[2.4]hept-6-yl)-1H-imidazol-4-yl)-4-biphenylyl)-1H-imidazol-2-yl)-5-azaspiro[2.4]hept-5-yl)-1-methyl-2-oxoethyl)carbam ate]: the 50% effective concentration (EC50) lay within 0.001 to 0.999 nM. Regarding `CC[C@H](NC(=O)OC)C(=O)N1CC2(CC2)C[C@H]1c1nc(-c2ccc(-c3ccc(-c4c[nH]c([C@@H]5CC6(CC6)CN5C(=O)[C@H](CC)NC(=O)OC)n4)cc3)cc2)c[nH]1` [Example M148, dimethyl (4,4'-biphenyldiylbis(1H-imidazole-4,2-diyl(6S)-5-azaspiro[2.4]heptane-6,5-diyl((2S)-1-oxo-1,2-butanediyl)))biscarbamate], the concentration for a half-maximal effect (EC50) fell in the range of 0.001 to 0.999 nM.

As to `COC(=O)N[C@@H](C(=O)N1CC2(CC2)C[C@H]1c1nc(-c2ccc(-c3ccc(-c4c[nH]c([C@@H]5CC6(CC6)CN5C(=O)[C@H](NC(=O)OC)C(C)C)n4)cc3)cc2)c[nH]1)C(C)C` [Example M149, methyl ((1R)-1-(((6S)-6-(4-(4'-(2-((6S)-5-((2R)-2-((methoxycarbonyl)amino)-3-methylbutanoyl)-5-azaspiro[2.4]hept-6-yl)-1H-imidazol-4-yl)-4-biphenylyl)-1H-imidazol-2-yl)-5-azaspiro[2.4]hept-5-yl)carbonyl)-2-methylpropyl)carbamate], the EC50 lay within 1 to 99 nM.

For the origin of these results see patent EP2242752B1, “[…] IMIDAZOLES AS HEPATITIS C VIRUS INHIBITORS” (Bristol-Myers Squibb Company, priority 2008, dated 2009).
